Data published in US20250255978A1, “DRUG-DELIVERY NANOPARTICLES AND TREATMENTS FOR DRUG-RESISTANT CANCER” (Cedars-Sinai Medical Center, priority 2016, published 2025).

Assays:
Assay in all cases: Cell viability assay (MTS), relative cell survival
Details in all cases: dose range, 4 h + 44 h incubation
[1] = system: JIMT1 (human breast cancer cells from a patient naturally resistant to trastuzumab); format: cell-based
Procedure: Relative cell survival after exposure to the described compositions was measured using a cell viability assay. 15,000, 10,000, or 8,000 cells per well were plated in black-walled, clear-bottom, 96-well plates. […] Plates were rocked for 4 hours at 37° C. and 5% CO2 and then 60 μL of complete media was added to each well to bring the total volume to 100 μL and the incubation was continued, without rocking, for 44 hours at 37° C. and 5% CO2. At the conclusion of the incubation, relative cell viability was determined via MTS assay (Promega) according to manufacturer's instructions. Specifically, the media was removed from the wells and 100 μL of fresh complete media was added to each well. 20 μl of the prepared MTS reagent was added to each well. The plate was then incubated with rocking at 37° C. and 5% CO2 and readings were taken of the plate at 1, 2, and 3 hours at 490 nm using a spectrophotometer. […]
The concentration of Eos-001 is reported in μM doxorubicin, and the concentration of lapatinib is reported in μM lapatinib. […] At the conclusion of the incubation, relative cell viability was determined via MTS assay (Promega) according to manufacturer's instructions. […] The plate was then incubated with rocking at 37° C. and 5% CO2 and readings were taken of the plate at 1, 2, and 3 hours at 490 nm on spectrophotometer. […]

[2] = system: BT474 (human breast cancer) cells; format: cell-based
Procedure: (§1) Plates were rocked for 4 hours at 37° C. and 5% CO2 and then 60 μL of complete media was added to each well to bring the total volume to 100 μL and the incubation was continued, without rocking, for 44 hours at 37° C. and 5% CO2. At the conclusion of the incubation, relative cell viability was determined via MTS assay (Promega) according to manufacturer's instructions. Specifically, the media was removed from the wells and 100 μL of fresh complete media was added to each well. 20 μl of the prepared MTS reagent was added to each well. The plate was then incubated with rocking at 37° C. and 5% CO2 and readings were taken of the plate at 1, 2, and 3 hours at 490 nm using a spectrophotometer.
The cells per well were plated in black-walled, clear-bottom, 96-well plates. […] At the conclusion of the incubation, relative cell viability was determined via MTS assay (Promega) according to manufacturer's instructions. […] The plate was then incubated with rocking at 37° C. and 5% CO2 and readings were taken of the plate at 1, 2, and 3 hours at 490 nm using a spectrophotometer. […]
(§2) The cells per well were plated in black-walled, clear-bottom, 96-well plates. […] At the conclusion of the incubation, relative cell viability was determined via MTS assay (Promega) according to manufacturer's instructions. […]

[3] = system: SKBR3 (human breast cancer) cells; format: cell-based
Procedure: as §1, with “The cells per well were plated in black-walled, clear-bottom, 96-well plates. […] Plates” for “Plates”
(§3) To verify the contribution of HER3 targeted toxicity of the Eos-001 nanoparticles, a HER3 peptide was used as a competitive inhibitor. The HER3 peptide was pre-incubated with the Eos-001 particles, which bound the heregulin targeting domain. […]
as §2

[4] = system: BT474-TR (trastuzumab-resistant human breast cancer) cells; format: cell-based
Procedure: as §1, with “The cells per well were plated in black-walled, clear-bottom, 96-well plates. […] Plates” for “Plates”
as §2, §2

[5] = system: SKBR3-TR (trastuzumab resistant breast cancer) cells; format: cell-based, human
Procedure: as §1, with “The cells per well were plated in black-walled, clear-bottom, 96-well plates. […] Plates” for “Plates”
as §3, §2

CS(=O)(=O)CCNCc1ccc(-c2ccc3ncnc(Nc4ccc(OCc5cccc(F)c5)c(Cl)c4)c3c2)o1 [lapatinib]
effect on survival / killing of JIMT1 cells [1]: unable to kill
effect on survival / killing of BT474 cells [2]: similarly effective
killing of SKBR3 cells [3]: similarly effective
killing of BT474-TR cells [4]: slightly effective
killing of SKBR3-TR cells [5]: slightly effective
